In US7109014B1, “Diglycosidase isolated from microorganisms” (Amano Enzyme Inc., priority 1998, dated 2006):
Structures can show the parent of a compound that is named as a salt. Where two headings read alike, the source gives them in different places.

What was measured:
[1] = system: Aspergillus fumigatus IAM 2046; assay: Effects of inducers on the production of diglycosidase; format: cell-based; settings: for activity at 0.1 %: Aspergillus fumigatus, IAM2046, 144 h, read-out: Inducing ability (%)
Method: Measurement of the activity was carried out using an automatic chemical analyzer (TBA-30R, manufactured by TOSHIBA CORP.). A 30 μl portion of each enzyme sample was mixed with 200 μl of acetate buffer solution (pH 5.5) containing 2 mM of p-nitrophenyl (pNP) primeveroside as the disaccharide glycoside substrate to carry out the reaction at 40° C. and at a cycle time of 22.5 seconds, for 9.75 minutes, and then the reaction solution was mixed with 250 μl of sodium carbonate to measure absorbance at 412 nm. Measurement of the sample blank was carried out in the same manner using 20 mM acetate buffer (pH 5.5) instead of the substrate solution.
Using Aspergillus fumigatus IAM 2046, effects of inducers on the production of diglycosidase were examined. Aspergillus fumigatus IAM 2046 was cultured for 6 days in a culture medium (2% soybean flour, 0.3% sodium chloride, 0.1% KH2PO4, 0.05% MgSO4.7H2O, 3% soluble starch) supplemented with 0.1% of each of various saccharides, and the diglycosidase activity was measured.

[2] = Optimum pH of diglycosidase; format: biochemical
Method: Its optimum pH was measured in the following manner. A 400 μl portion of 2 mM pNP-primeveroside solution which had been adjusted to a respective pH value of from pH 2 to 5 with 20 mM secondary citric acid-HCl buffer was incubated at 37° C. for 5 minutes. Next, this was mixed with 90 μl of the enzyme solution to carry out the reaction at 37° C. for 20 minutes. The reaction was stopped by adding 500 μl of 0.5 M sodium carbonate solution, and the activity measurement was carried out by measuring the absorbance at 420 nm.

[3] = Optimum temperature of diglycosidase; format: biochemical; settings: pH 2.5, 20 minutes
Method: Its optimum temperature was measured in the following manner. A 400 μl portion of 2 mM pNP-primeveroside solution prepared using 20 mM disodium citric acid-HCl buffer (pH 2.5) was mixed with 90 μl of the enzyme solution to carry out the reaction at 30 to 65° C. for 20 minutes. The reaction was stopped by adding 500 μl of 0.5 M sodium carbonate solution, and the activity was determined by measuring the absorbance at 420 nm.

[4] = Thermal stability of diglycosidase (residual activity); format: physicochemical; settings: pH 8, 1 hour, 30 to 55° C.
Method: Thermal stability of the purified preparation was examined by diluting it 100 times with 20 mM glycine NaCl—NaOH buffer (pH 8), treating the dilution at each temperature of from 30 to 55° C. for 1 hour and then measuring the residual activity. As a result, the activity was stable at a temperature of 50° C. or below.

[5] = Release of primeverose from pNP-primeveroside by TLC; format: biochemical; settings: 0.3 AU purified enzyme, 37° C., 24 hours
Method: Each of the crude enzyme solutions obtained in Examples 1 and 2 was concentrated using an ultrafiltration membrane having a molecular weight cutoff of 6,000. Next, 1 ml of the concentrated solution was mixed with 1 ml of a 5 mg/ml pNP-primeveroside solution which had been prepared using 20 mM phosphate buffer (pH 6.0), and the mixture was incubated at 37° C. Samples were collected 1, 2, 4, 24 and 48 hours thereafter to confirm release of primeverose by a thin layer chromatography (TLC).
A 0.3 AU portion of the purified enzyme solution obtained in Example 6 and the aforementioned pNP-primeveroside were incubated at 37° C. for 24 hours to examine release of disaccharide by TLC. […] Such a spot was not found by the heat-treated purified enzyme solution used as a control.

[6] = Release of disaccharide and formation of aroma from eugenyl primeveroside; format: biochemical; settings: 0.3 AU purified enzyme, 37° C., 24 hours
Method: eugenyl primeveroside solution adjusted to 5 mg/ml with 20 mM phosphate buffer (pH 6.0), the mixture was incubated at 37° C. for 24 hours and then the formation of aroma was examined by a sensory test (10 panel). […]
[…] […] These were not found in heat-inactivated enzyme solution.

[7] = Release of disaccharide from pigment glycoside by TLC; format: biochemical; settings: 5 mg/ml ruberythric acid, 37° C., 24 hours
Method: Release of disaccharide was examined using a disaccharide glycoside, ruberythric acid, as the substrate. Ruberythric acid was prepared by adsorbing a water extract of Rubia tinctorum L. root powder for staining use (available from Tanaka Senshoku Ten) to HP-20 column, washing the column with 50% methanol, and then eluting the compound with 100% methanol and evaporating the eluate to dryness using an evaporator. A substrate prepared by dissolving the thus recovered ruberythric acid in a phosphate buffer to a concentration of 5 mg/ml was mixed with the crude enzyme solution (0.3 AU) shown in Example 4 or the purified enzyme solution shown in Example 6 and incubated at 37° C. for 24 hours, and then the reaction solution was analyzed by TLC.

[8] = Sugar transfer in disaccharide unit by diglycosidase; format: biochemical; settings: 55° C., 6 hours
Method: The purified enzyme of Example 6 was diluted with deionized water to adjust the activity to E1.0 AU/ml, and acetonitrile ([…]) containing 2.5% phenethyl alcohol, 20 mM acetate buffer (250 μl) containing 10% primeverose and the enzyme solution (50 μl) were mixed to carry out the reaction at 55° C. The reaction was completed after 6 hours and the reaction solution was mixed with 500 μl of diethyl ether, stirred and then centrifuged to remove free aglycon which was transferred into the ether layer. By applying the water layer to a Diaion HP-20 column and passing purified water through the column, free primeverose was removed. The disaccharide glycoside adsorbed to the resin was eluted with methanol and concentrated to dryness. This was dissolved in 100 μl of deionized water, and a 20 μl portion thereof was spotted on a TLC plate to detect the reaction product (the developing solvent was ethyl acetate:acetic acid:deionized water=3:1:1, acetic acid:methanol=1:4 solution was sprayed thereto after the development and allowed to stand at 105° C. for 10 minutes).

[9] = medium supplemented with 0.1% of saccharide, cultured 6 days, diglycosidase activity, not added = 100

| Molecule | activity at 0.1 % [1, 9] [%] | Inducing ability (%) [1, 9] [%] | also measured |
| --- | --- | --- | --- |
| OC[C@H]1O[C@@](CO)(O[C@H]2O[C@H](CO)[C@@H](O)[C@H](O)[C@H]2O)[C@@H](O)[C@@H]1O [Sucrose] | 116 |  |  |
| OC[C@H]1O[C@H](O[C@H]2O[C@H](CO)[C@@H](O)[C@H](O)[C@H]2O)[C@H](O)[C@@H](O)[C@@H]1O [Trehalose] | 113 |  |  |
| OC[C@@H](O)[C@@H](O[C@H]1O[C@H](CO)[C@@H](O)[C@H](O)[C@H]1O)[C@H](O)[C@@H](O)CO [Maltitol] |  | 142 |  |
| OC[C@H]1O[C@H](OC[C@H]2OC(O)[C@H](O)[C@@H](O)[C@@H]2O)[C@H](O)[C@@H](O)[C@@H]1O (some centres unmarked) [Isomaltose] |  | 145 |  |
| OC[C@@H](O)[C@H](O)[C@H](O)[C@@H](O)CO [Galactitol] | 142 |  |  |
| O=C(CO)[C@@H](O)[C@H](O)[C@H](O)CO [Fructose] |  |  | activity at 0.1 % [1]: 143% |
| C[C@H](O)[C@H](O)[C@@H](O)[C@@H](O)C=O [Rhamnose] | 129 |  |  |
| OC[C@H]1O[C@H](O[C@H]2[C@H](O)[C@@H](O)C(O)O[C@@H]2CO)[C@H](O)[C@@H](O)[C@@H]1O (mixture of isomers) [Maltose] | 136 |  |  |
| N[C@H]1C(O)O[C@H](CO)[C@@H](O)[C@@H]1O (some centres unmarked) [Glucosamine hydrochloride] | 157 |  |  |
| Gentiobiose |  | 211 | inducing ability / producing ability of diglycosidase (in words) ([1]; 0.1% saccharide, 6 days): markedly high inducing ability |
| O=C[C@H](O)[C@@H](O)[C@@H](O)[C@H](O)CO [Galactose] | 125 |  |  |
| OC[C@@H](O)C(O)[C@H](O)CO [Arabitol] |  | 112 |  |
| Maltotriose |  | 171 |  |
| diglycosidase derived from Aspergillus fumigatus: purified enzyme preparation of diglycosidase from Aspergillus fumigatus IAM 2046, single band of 47 kDa, SEQ ID NO: 8 (protein, listed as Aspergillus fumigatus) AASASAYCSNSAGNYKLSSIAAPVQGAGNPGSESTWQLTVDDTSSGHKQTIVGFGAAVTDATVTSFNTLSASVLQDLLNKLMTPAGANFALMRHTIGASDLSGDPAYTYDDNGGKADPSLSGFNLGDRGTAMAKMLATMKSLQPNLKILGSPWSAPGWMKLNGVLDGNTNNNNLNDGYLTSGGTGSTGYASQFAQYFVKYIQAYKNLGAHVDAITIQNEPLFSSAGYPTMYVYDYESAQLIQNYIGPALASAGLDTEIWAYDHNTDVPSYPQTVLNQAGQYVKSVAWHCYAPNVDWTVLSQFHNTNPGVKQYMTECWTPASGAWHQAADFTMGPLQNWASGVAAWTLGTNAQDGPHLSTGGCATCQGLVTINNGGYTLNTAYYMMAQFSKFMPPGAIVLNGSGSYTYSGGGGIQSVASLNPDGTRTVVIENTFGNDVYVTVTMKSGQKWSGNAPSQSVTTWVLPSA |  |  | activity at pH 3 (in words) [2]: sufficient activity; activity at 60° C. [3]: 80%; temperature at which activity is stable [4]: ≤ 50 °C; release of disaccharide (TLC) [5]: release of a disaccharide was confirmed; release of disaccharide (TLC) [6]: release of a disaccharide was confirmed; release of eugenol (gas chromatography) [6]: confirmed; release of eugenol (sensory test) [6]: release of eugenol was also confirmed; release of primeverose and alizarin (TLC) [7]: release of the disaccharide primeverose and the aglycon alizarin was observed; transfer of disaccharide to phenethyl alcohol (TLC) [8]: transfers the diglycoside to phenethyl alcohol and thereby forms a disaccharide glycoside |
